These results are taken from publication PMC6214143, “Oncotoxic Properties of Serotonin Transporter Inhibitors and 5-HT1A Receptor Ligands” (International Journal of Molecular Sciences, 2018).

Structures can show the parent of a compound that is named as a salt.

Series [1] relates to Balb/c 3T3 cells. Nature of the series: MTT cell survival assay, Balb/c 3T3 cells (normal reference). It is filed as cell-based, murine. To be noted: Mus musculus, BALB/c3T3, 72 h. Here is the method:
(§1) The effects of the test compounds on the survival of PC-3, SH-SY5Y, Balb/c 3T3 and HEK293 cells was measured with the aid of the 3-(4,5-dimethylthiazol-2-yl)-2,5-diphenyltetrazolium bromide (MTT) assay. The cells were cultured in 96-well plates (100 μL/well) for 72 h. The optimized initial densities were the following: for PC-3—60,000 cells/mL, SH-SY5Y and Balb/c 3T3—50,000 cells/mL.
(§2) After 20 h preincubation and evaluation of the uniformity of cell growth, the medium was aspirated, and the respective solutions of the substances were added to the culture medium. Control cells were only treated the solvent used for the compounds and medium alone.
(§3) MTT (3-(4,5-dimethylthiazol-2-yl)-2,5-diphenyltetrazolium bromide) is reduced by intracellular dehydrogenase, which is present only in live cells (mitochondria), to purple, water-insoluble formazan. After it is dissolved, formazan absorbance of the resulting solution is directly proportional to the number of living cells in culture.
After appropriate incubation, the culture medium was removed. Next, 50 μL of MTT solution (0.5 mg/mL) diluted in PBS to 0.5 mg/mL was added to each well. The plates were incubated for 3 h at 37 °C. Then, the precipitated formazan was dissolved by the addition of 200 μL isopropanol. After a 24-hour incubation at 4 °C in the dark, the absorbance of the dissolved formazan was measured at 570 nm (the maximum absorption of formazan) and at 690 nm (reference wavelength) using a Power Wave XS microplate spectrophotometer (Bio-Tek, Winooski, VT, USA). The plates were sealed to reduce evaporation before incubation. The test was performed in three to five independent experiments with four times the measured concentration tested. The cell survival percentage was determined as % of controls, which were cells treated with the test compound solvent at the highest concentration.
In general terms: Tetrazolium assays rely on reduction of a dye to a coloured formazan, in cell work by metabolically active cells.

Series [2] deals with T1, 5-HT1A receptor (Homo sapiens, UniProt P08908).
T1 construct: EGFP; expressed in transfected cells
T1 sequence (P08908 1-422): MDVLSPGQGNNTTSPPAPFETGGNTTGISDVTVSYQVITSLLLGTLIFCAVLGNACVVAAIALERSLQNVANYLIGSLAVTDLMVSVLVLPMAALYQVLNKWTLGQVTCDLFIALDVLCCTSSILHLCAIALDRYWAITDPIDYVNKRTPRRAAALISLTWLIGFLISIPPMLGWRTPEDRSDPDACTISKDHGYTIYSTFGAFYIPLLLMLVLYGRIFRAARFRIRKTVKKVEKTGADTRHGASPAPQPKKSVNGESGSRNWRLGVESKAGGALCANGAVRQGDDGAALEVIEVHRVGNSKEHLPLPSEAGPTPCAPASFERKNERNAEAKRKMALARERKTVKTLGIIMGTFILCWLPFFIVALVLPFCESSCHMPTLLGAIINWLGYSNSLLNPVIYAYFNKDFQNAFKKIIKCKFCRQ
Nature of the series: ERK1/2 phosphorylation (HTRF) in HEK293 cells that overexpress the 5-HT1AR gene. It is filed as cell-based. To be noted: HEK293-5-HT1A cells. The procedure:
(§4) The examination of the functional activity read out as cAMP level inhibition and ERK1/2 and Akt1 phosphorylation was performed according to the instructions of the One-plate Cisbio Bioassays cAMP dynamic 2, phospho-ERK (Thr202/Tyr204) and Akt1 phospho- S473 Cellular Assay Kits respectively, using a HEK293 human fibroblast cell line that overexpresses 5-HT1A receptors. […] The cAMP levels in PC-3 cells were determined using 600,000 cells/mL. Receptor activation with the appropriate ligands was carried out for 30 min, and then the cells were lysed. The results were analyzed with GraphPad Prism v 6.0 (GraphPad Software, San Diego, CA, USA) using its in-built functions. Ligand activity was determined using a 4-parameter equation of the dose-response function. […] M.
(§5) All compounds were tested with both agonists and antagonists. To test the response of cAMP to an agonist the cells were activated with forskolin (1 µM) followed by agonist addition. […] Data are an average of minimum three independent experiments in duplicate. The control of specific activity was measured under the same conditions on cells lacking the 5-HT1A receptor. The results were expressed as % of the reference agonist activity. In the antagonist mode 100% of the reference agonist activity (EC80) corresponded to 0% antagonist activity.
In general terms: In TR-FRET formats the signal depends on donor and acceptor labels being close together.

In series [3] the test system is SH-SY5Y cells. The series can be described thus: MTT cell survival assay, SH-SY5Y cells. It is filed as cell-based, human. The note with it: for IC50: Homo sapiens, MTT, 72 h. The procedure: as §1, §2, §3
(§6) After appropriate incubation, the culture medium was removed. Next, 50 μL of MTT solution (0.5 mg/mL) diluted in PBS to 0.5 mg/mL was added to each well. […] Then, the precipitated formazan was dissolved by the addition of 200 μL isopropanol. […] The plates were sealed to reduce evaporation before incubation. The test was performed in three to five independent experiments with four times the measured concentration tested. The cell survival percentage was determined as % of controls, which were cells treated with the test compound solvent at the highest concentration.

Series [4] has as its target T2, serotonin transporter (SERT) (Rattus norvegicus, UniProt P31652).
T2 construct: Rat cerebral cortex was homogenized in 30 volumes of ice-cold 50 mM Tris-HCl; from tissue; host or cells: rat cerebral cortex (membrane pellet)
Nature of the series: In vitro binding affinity for serotonin transporter ([3H]-citalopram displacement). To be noted: rat cerebral cortex, read-out: SERT Ki ± SEM. The procedure:
The experiments were performed according to the method described by Owens et al. Rat cerebral cortex was homogenized in 30 volumes of ice-cold 50 mM Tris-HCl containing 150 mM NaCl and 5 mM KCl, pH 7.7 at 25 °C and centrifuged at 20,000 × g for 20 min. The supernatant was decanted, and the pellet was resuspended in 30 volumes of buffer and centrifuged three times. The final pellet was suspended in Tris-HCl buffer at a proportion of approximately 5 mg wet weight/mL. An increasing concentration of the analyzed compounds (30 μL) was added to the incubation mixture containing 240 μL of tissue suspension and 30 μL of 1 nM [^3H]-citalopram (used for labeling 5-HT-transporter). Non-specific binding was determined in the presence 30 μL of 1 μM imipramine (displacer). Duplicate samples were incubated at room temperature for 1 h. The incubation was terminated by rapid filtration over fiberglass filters FilterMate B (Perkin Elmer, Waltham, MA, USA) using a 96-well FilterMate harvester (PerkinElmer, Waltham, MA, USA). The radioactivity of the filters was measured with a MicroBeta TriLux 1450 scintillation counter. Ki values were calculated from the Cheng–Prusoff equation [31]: (1) Ki=IC50/1+Lo/KD where Lo is the labeled ligand concentration, and KD is the dissociation constant of the labeled ligand.

Series [5] has as its target T1, 5-HT1A receptor. Nature of the series: cAMP level (HTRF) in HEK293 cells that overexpress the 5-HT1AR gene. It is filed as cell-based. The procedure: as §4, §5
In general terms: Cyclic AMP is a second messenger, typically raised through Gs and lowered through Gi signalling.

Series [6] deals with PC-3 cells. The series can be described thus: MTT cell survival assay, PC-3 cells. Format: cell-based, human. To be noted: for IC50: Homo sapiens, MTT, 72 h. The procedure:
as §1, §2, §3, §6

On the set-up of series [7]: method as in PMID 7705455. To be noted: rats, s.c.; cited from earlier work.
The subject of series [8] is Akt pathway. Nature of the series: pAkt level (Akt1 phospho-S473 HTRF) in HEK293 cells that overexpress the 5-HT1AR gene. Format: cell-based. To be noted: Homo sapiens. The procedure: (§7) The examination of the functional activity read out as cAMP level inhibition and ERK1/2 and Akt1 phosphorylation was performed according to the instructions of the One-plate Cisbio Bioassays cAMP dynamic 2, phospho-ERK (Thr202/Tyr204) and Akt1 phospho- S473 Cellular Assay Kits respectively, using a HEK293 human fibroblast cell line that overexpresses 5-HT1A receptors. The measurements were performed in 384-well microtiter plates using 200,000, 1,875,000 or 2,000,000 cells/mL. The cAMP levels in PC-3 cells were determined using 600,000 cells/mL. Receptor activation with the appropriate ligands was carried out for 30 min, and then the cells were lysed. The results were analyzed with GraphPad Prism v 6.0 (GraphPad Software, San Diego, CA, USA) using its in-built functions. Ligand activity was determined using a 4-parameter equation of the dose-response function. The response curves were obtained by plotting the HTRF® ratio (signal ratio 665/620 nm × 10,000) relative to the log concentration of the [compound] M.

The subject of series [9] is dopamine D2 receptor. To be noted: cited from earlier work.
The target of series [10] is 5-HT1A receptor. The note with it: cited from earlier work.
Series [11] deals with PC-3 cells. The series can be described thus: cAMP level in PC-3 prostate cancer cells. Format: cell-based. The note with it: Homo sapiens, 1 µM forskolin. Here is the method:
as §7

The mark [12] stands for this setting: agonist mode, read-out: ERK1/2 EC50.

T2 sequence (P31652 whole entry): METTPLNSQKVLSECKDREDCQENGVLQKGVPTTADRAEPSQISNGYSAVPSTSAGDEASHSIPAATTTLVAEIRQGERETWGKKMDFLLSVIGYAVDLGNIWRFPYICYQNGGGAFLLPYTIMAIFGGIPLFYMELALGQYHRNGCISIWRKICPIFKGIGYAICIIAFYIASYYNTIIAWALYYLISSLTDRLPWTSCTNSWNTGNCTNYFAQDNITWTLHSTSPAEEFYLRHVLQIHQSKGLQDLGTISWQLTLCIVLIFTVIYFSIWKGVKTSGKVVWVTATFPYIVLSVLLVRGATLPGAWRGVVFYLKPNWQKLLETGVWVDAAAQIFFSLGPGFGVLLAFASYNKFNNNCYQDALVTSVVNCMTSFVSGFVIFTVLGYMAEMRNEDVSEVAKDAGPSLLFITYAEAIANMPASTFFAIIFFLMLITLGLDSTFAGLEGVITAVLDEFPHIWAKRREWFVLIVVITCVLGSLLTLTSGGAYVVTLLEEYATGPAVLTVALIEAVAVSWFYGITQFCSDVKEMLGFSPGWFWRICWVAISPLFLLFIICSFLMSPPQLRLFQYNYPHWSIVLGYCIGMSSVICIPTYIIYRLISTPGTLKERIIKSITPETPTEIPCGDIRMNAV

By IC50 is commonly meant the midpoint of a concentration-inhibition curve. A word on the melting point: it is the temperature, or range, at which the solid turns liquid. What is called Ki is a dissociation constant, usually derived from enzyme kinetics or from competition with a known ligand. Turning to `Cl.O=[N+]([O-])c1ccc2nc(N3CCN(CC4CCC4)CC3)ccc2c1` [AB22, 2-[4-(cyclobutylmethyl)piperazin-1-yl]-6-nitroquinoline hydrochloride], the melting point lay in the range of 99 to 101 °C. The same molecule yielded an IC50 in series [1] of 35.5 ± 8.71 µM. In series [2] (setting [12]), the EC50 was determined as 13800 pM. In series [3] (SH-SY5Y cells), this molecule yielded an IC50 of 35 ± 8.96 µM. Also, in series [3] (IC50 Balb/c 3T3 / IC50 SH-SY5Y), the “Selectivity Index” value was 1.01. The Ki in series [4] is 0.0076 ± 0.0008 µM. In [5], this molecule came in with an IC50 of 76.1 µM. In [6] (PC-3 cells), the midpoint of inhibition, the IC50, lay at 23.5 ± 2.21 µM. For the same molecule, the “Selectivity Index” value in series [6] (IC50 Balb/c 3T3 / IC50 PC-3) was found to be 1.51.
With `CCCN(CCC)[C@@H]1CCc2cccc(O)c2C1` [Compound 8-OH-DPAT, (2R)-(+)-8-Hydroxy-2-(di-n-propylamino)tetralin hydrobromide], the “minimal effective dose (MED), reduction of immobility” value in series [7] is on record as 0.63 mg/kg.
For orientation: Kd means the concentration at which binding is half-saturated. For the molecule `COc1ccc2cccc(N3CCN(CCNC(=O)c4ccc(F)cc4)CC3)c2c1.Cl` [Compound S14506, 4-Fluoro-N-[2-[4-(7-methoxy-1-naphthalenyl)-1-piperazinyl]ethyl]benzamide hydrochloride, reference compound], the IC50 was 20.6 ± 2.58 µM in series [1]; 15.5 µM in series [8]; 4.27 ± 0.41 µM in [3] (SH-SY5Y cells); 0.32 µM in series [11] (read-out: cAMP biochemical pathway IC50); 9.98 ± 1.26 µM in series [6] (PC-3 cells). The “dopamine D2 receptor properties” value in series [9] is listed as “dopamine D2 receptor antagonist”. Further, the EC50 in series [2] (setting [12]) was 62 pM; in [2] (elevating phosphorylated ERK1/2 levels, read-out: MAPK/ERK1/2 pathway agonist EC50), 93 pM; in series [5] (agonist mode, 1 µM forskolin-stimulated HEK293-5-HT1A cells), 25.4 pM; in [11] it was 0.32 µM. Further, the “cytotoxic activity in the presence of WAY100635 and spiperone” value in series [3] (SH-SY5Y cells, WAY100635 (5 µM), spiperone (5 µM)) was “not against neuroblastoma SH-SY5Y cells”; in [6] (PC-3 cells, WAY100635 (5 µM), spiperone (5 µM)) it was “reversed”. The Kd in series [10] was 0.00079 ± 0.0002 µM.
